From BindingDB's records for doi:10.1016/j.bmcl.2008.04.031 (The University of Tokyo, 2008) come the findings set out here.

The nature of this assay: Degradation promoting activity of FLAG tagged cIAP1 expressed in human HT1080 cells after 3 hrs by Western blotting analysis.

In the case of `CC(C)C[C@H](NC(=O)[C@@H](O)[C@H](N)Cc1ccccc1)C(=O)OCCNS(=O)(=O)c1cccc2c(N(C)C)cccc12` [(S)-2-(1-(dimethylamino)naphthalene-5-sulfonamido)ethyl 2-((2S,3R)-3-amino-2-hydroxy-4-phenylbutanamido)-4-methylpentanoate], it took 1860 nM to reach half-maximal inhibition (IC50).
Consider `COC(=O)[C@H](CC(C)C)NC(=O)[C@@H](O)[C@H](N)Cc1ccccc1` [(S)-methyl 2-((2S,3R)-3-amino-2-hydroxy-4-phenylbutanamido)-4-methylpentanoate], for which the IC50 was found to be 690 nM.
